Laboratory results taken from article PMC5519068 (PLoS ONE, 2017).
Read-outs that look alike come from different tables or passages of the source.

Experiments:
MOLM-13 cells = experiment: Growth inhibition, CellTiter-Blue viability, 72 h; assay type: cell-based; conditions: Homo sapiens, MOLM-13 (Flt3-ITD+), read-out: Growth Suppression in AML Cell Lines (IC50, nM) MOLM-13
Description: (§1) Cells were seeded at a density of 100,000 cells per 1.0 ml in 48-well culture plates. Compounds were added to various concentrations while holding the DMSO concentration constant at 0.1%. Cell viability was assessed 72 hours later using the CellTiter-Blue Cell Viability assay (Promega) according to the manufacturer’s protocol and a SpectraMax Multi-Mode Microplate Reader (Molecular Devices). IC50 values were determined by non-linear regression analysis of concentration-response curves using the GraphPad PRISM software package (version 6.0). Apoptosis was determined using the same cell culture conditions and the Apo-ONE Homogeneous Caspase-3/7 Assay (Promega) and the manufacturer’s protocol.
(§2) Fig 2 Fes tyrosine kinase inhibitors induce growth arrest in Flt3-ITD^+ AML cell lines. A) The Flt3-ITD^+ cell lines MV4-11, MOLM-13, and MOLM-14, along with THP-1 (wild-type FLT3) were incubated with each of the kinase inhibitors shown over a range of concentrations, and cell viability was measured 72 h later using the CellTiter-Blue Assay (see Materials and methods). Raw fluorescence data were corrected for background and then normalized to cultures grown in the presence of the DMSO carrier solvent. Each assay condition was performed in triplicate, and results are presented as the mean of the normalized values ± the SD. The resulting dose-response curves were fitted by non-linear regression analysis, and the resulting IC50 values are shown in Table 1.

MOLM-14 cells = experiment: Growth inhibition, CellTiter-Blue viability, 72 h; assay type: cell-based; conditions: Homo sapiens, MOLM-14 (Flt3-ITD+), read-out: Growth Suppression in AML Cell Lines (IC50, nM) MOLM-14
Description: as §1, §2

MV4-11 cells = experiment: Growth inhibition, CellTiter-Blue viability, 72 h; assay type: cell-based; conditions: Homo sapiens, MV4-11 (Flt3-ITD+), read-out: Growth Suppression in AML Cell Lines (IC50, nM) MV4-11
Description: as §1, §2

THP-1 cells = experiment: Growth inhibition, CellTiter-Blue viability, 72 h; assay type: cell-based; conditions: Homo sapiens, THP-1 (wild-type Flt3), read-out: Growth Suppression in AML Cell Lines (IC50, nM) THP-1
Description: as §1, §2

[1] = test system: Fes in TF-1/Flt3-ITD cells; experiment: Immunoprecipitation/immunoblot of Fes pY713 in TF-1/Flt3-ITD cells; assay type: cell-based, human; conditions: compound at in vitro IC90 for Fes, 16 h (tandutinib: IC90 for Flt3-ITD, 6 h)
Description: (§3) AML cells (2.5 x 10^6 in 5 mL) were cultured in the presence of kinase inhibitors or DMSO alone for 6 to 16 hours prior to lysis by sonication in RIPA buffer (50 mM Tris-HCl, pH 7.4, 150 mM NaCl, 1 mM EDTA, 1% Triton X-100, 0.1% SDS, 1% sodium deoxycholate) supplemented with 1 mM sodium orthovanadate, 1 mM sodium fluoride, 5 units/ml Benzonase (Novagen), and SigmaFAST EDTA-free protease inhibitor cocktail (Sigma). Flt3 and Fes were immunoprecipitated from 1 mg of cell lysate with 2 μg of antibody and 25 μL of protein G-Sepharose beads (Life Technologies) overnight at 4°C. Immunoprecipitates were washed three times by resuspension in 1.0 ml of RIPA buffer. Immunoprecipitated proteins were separated by SDS-PAGE, transferred to PVDF membranes and probed with the indicated antibodies followed by alkaline phosphatase-linked secondary antibodies. CDP-Star Western Blot Chemiluminescence Reagent (Perkin-Elmer) was used for detection.
(§4) Raw fluorescence data were corrected for background and then normalized to cultures grown in the presence of the DMSO carrier solvent. Each condition was performed in triplicate, and results are presented as the mean of the normalized values ± the SD. The resulting dose-response curves were fitted by non-linear regression analysis for estimation of the IC50 values (see Table 2). […] Fes and Flt3 kinase proteins were then immunoprecipitated from cell lysates followed by immunoblotting with antibodies to phosphotyrosine (pTyr), the Fes activation loop phosphotyrosine (pY713), as well as the Flt3 and Fes proteins.

[2] = test system: Flt3-ITD in TF-1/Flt3-ITD cells; experiment: Immunoprecipitation/immunoblot of Flt3 phosphotyrosine content in TF-1/Flt3-ITD cells; assay type: cell-based, human; conditions: compound at in vitro IC90 for Fes, 16 h (tandutinib: IC90 for Flt3-ITD, 6 h)
Description: as §3, §4

Flt3-WT kinase domain = biological target: T1, Flt3-WT kinase domain (Homo sapiens, UniProt P36888); experiment: In vitro kinase assay (Z'-LYTE); assay type: biochemical; conditions: ATP at Km
T1 construct: Recombinant Flt3-WT, Flt3-ITD, and Flt3-D835Y kinase domain proteins were purchased from Life Technologies; purchased Life Technologies
Description: (§5) Recombinant protein kinase assays were performed using the FRET-based Z’-LYTE Kinase Assay according to the manufacturer’s instructions (Thermo Fisher Scientific). […] The Tyr-2 peptide was used as substrate for all recombinant kinases. Kinases were preincubated with inhibitors for 30 minutes, followed by addition of ATP and peptide substrate for 1 hour. Reactions were quenched by addition of development reagent, followed by incubation for an additional hour prior to fluorescence measurements on a SpectraMax M5 microplate reader. IC50 values were calculated by non-linear regression analysis of the resulting concentration-response curves using GraphPad PRISM.

Flt3-D835Y kinase domain = biological target: T2, Flt3-D835Y kinase domain (Homo sapiens, UniProt P36888, D835Y); experiment: In vitro kinase assay (Z'-LYTE); assay type: biochemical; conditions: for IC50: ATP at Km
T2 construct: Recombinant Flt3-WT, Flt3-ITD, and Flt3-D835Y kinase domain proteins were purchased from Life Technologies; purchased Life Technologies
T2 sequence (P36888 610-943 D835Y limits assumed): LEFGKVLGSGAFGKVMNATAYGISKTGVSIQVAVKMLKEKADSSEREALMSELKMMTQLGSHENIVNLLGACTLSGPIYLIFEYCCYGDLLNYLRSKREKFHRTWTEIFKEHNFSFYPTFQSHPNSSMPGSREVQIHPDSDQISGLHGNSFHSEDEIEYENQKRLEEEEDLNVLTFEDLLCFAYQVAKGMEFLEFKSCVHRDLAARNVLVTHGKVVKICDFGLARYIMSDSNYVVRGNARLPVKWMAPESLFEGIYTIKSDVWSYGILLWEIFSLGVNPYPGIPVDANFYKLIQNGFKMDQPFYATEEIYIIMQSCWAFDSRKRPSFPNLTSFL
Description: as §5

Flt3-ITD kinase domain = Flt3-ITD kinase domain (Homo sapiens, UniProt P36888); experiment: In vitro kinase assay (Z'-LYTE); assay type: biochemical; conditions: ATP at Km
Description: as §5

TF-1/Flt3-D835Y cells = experiment: Inhibitor sensitivity of TF-1 cell populations, CellTiter-Blue, 72 h; assay type: cell-based, human
Description: as §1
(§6) For each retroviral transduction, TF-1 cells (1 x 10^6) were suspended in 5 mL of undiluted viral supernatant and plated in one well of a 6-well tissue culture dish. Polybrene (Sigma) was added to a final concentration of 4 μg/mL and the TF-1 cells were centrifuged at 1000 x g for 3 hours to enhance retroviral mediated gene transfer. After centrifugation, the virus was removed and replaced with fresh medium.
as §4

TF-1/Flt3-ITD cells = experiment: as above; assay type: cell-based, human
Description: as §1, §6, §4

[3] = test system: TF-1 cells transduced with an empty retroviral vector (Control); experiment: as above; assay type: cell-based, human; conditions: Homo sapiens, TF-1; empty vector control, 72 h
Description: as §1, §6, §4

Compound	IC50 (MOLM-13 cells) [nM]	IC50 (MOLM-14 cells) [nM]	IC50 (MV4-11 cells) [nM]	IC50 (THP-1 cells) [nM]	Inhibition of Fes activation loop phosphorylation in TF-1/Flt3-ITD cells [1]	Inhibition of Flt3-ITD phosphotyrosine content in TF-1/Flt3-ITD cells [2]	IC50 (Flt3-WT kinase domain) [nM]	IC50 (Flt3-D835Y kinase domain) [nM]	IC50 (Flt3-ITD kinase domain) [nM]	Activity on TF-1/Flt3-D835Y cell growth (TF-1/Flt3-D835Y cells; 72 h)	IC50 (TF-1/Flt3-D835Y cells; Homo sapiens, TF-1, 72 h; read-out: Inhibitor sensitivity of TF-1 Cell Populations (IC50, nM) Flt3-D835Y) [nM]	IC50 (TF-1/Flt3-ITD cells; Homo sapiens, TF-1, 72 h; read-out: Inhibitor sensitivity of TF-1 Cell Populations (IC50, nM) Flt3-ITD) [nM]	IC50 [3] [nM]	Sensitivity of Flt3-D835Y compared to wild-type Flt3 in vitro (Flt3-D835Y kinase domain; in vitro kinase assays)	IC50 (TF-1/Flt3-D835Y cells; Homo sapiens, TF-1, 72 h, read-out: Inhibitor sensitivity of TF-1 Cell Populations (IC50, nM) Flt3-D835Y) [nM]	IC50 (TF-1/Flt3-ITD cells; Homo sapiens, TF-1, 72 h, read-out: Inhibitor sensitivity of TF-1 Cell Populations (IC50, nM) Flt3-ITD) [nM]	Potency in TF-1/Flt3-ITD cells compared to the Flt3-ITD+ AML cells (TF-1/Flt3-ITD cells; growth inhibition)
CCN1CCN(Cc2ccc(NC(=O)c3ccc(C)c(Oc4ccnc5[nH]ccc45)c3)cc2C(F)(F)F)CC1 [HG7-92-01]	93	34	19	> 3000	inhibited both Flt3-ITD and Fes	inhibited both Flt3-ITD and Fes	536	3650	149	devoid of activity	> 1000	29	> 1000				
COc1cc(N2CCC(O)CC2)ccc1Nc1nc(Nc2ccccc2S(=O)(=O)C(C)C)c2cn[nH]c2n1 [WZ4-49-1]	884	994	965	> 3000	only inhibited the activity of Fes	only inhibited the activity of Fes	3140	642	1390				> 3000	about 5 fold	597	466	about two-fold higher
